From the supplement of paper PMC11665569
± gives the standard deviation of the averaged measurements.

Tests used:
KYSE410 = assay: relative viability (fraction of vehicle control); higher = more viable / less inhibited; conditions: treatment time: 5 days
Protocol: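 CCK-8 viability of KYSE410 cells transfected with control, YAP/TAZ or TEAD1-4 siRNAs and treated with KRAS G12C inhibitors for 5 days. Values are normalised to vehicle control.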

H2030 = assay: as above; conditions: treatment time: 5 days
Protocol: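 CCK-8 viability of H2030 cells transfected with control, YAP/TAZ or TEAD1-4 siRNAs and treated with KRAS G12C inhibitors for 5 days. Values are normalised to vehicle control.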

C=CC(=O)N1CCN(c2ncnc3c(F)c(-c4c(O)cccc4F)c(Cl)cc23)CC1 [ARS1620]
relative viability
Conditions	H2030	KYSE410
log10 concentration (uM): 0, siRNA knockdown: TEAD1-4 siRNA 1	0.502 ± 0.026	–
log10 concentration (uM): 0, siRNA knockdown: TEAD1-4 siRNA 2	0.522 ± 0.021	–
log10 concentration (uM): 0, siRNA knockdown: YAP/TAZ siRNA 1	0.521 ± 0.043	–
log10 concentration (uM): 0, siRNA knockdown: YAP/TAZ siRNA 2	0.482 ± 0.031	–
log10 concentration (uM): 0, siRNA knockdown: negative control siRNA	0.948 ± 0.085	–
log10 concentration (uM): 0.39794, siRNA knockdown: TEAD1-4 siRNA 1	0.429 ± 0.021	–
log10 concentration (uM): 0.39794, siRNA knockdown: TEAD1-4 siRNA 2	0.365 ± 0.038	–
log10 concentration (uM): 0.39794, siRNA knockdown: YAP/TAZ siRNA 1	0.499 ± 0.17	–
log10 concentration (uM): 0.39794, siRNA knockdown: YAP/TAZ siRNA 2	0.448 ± 0.021	–
log10 concentration (uM): 0.39794, siRNA knockdown: negative control siRNA	0.927 ± 0.11	–
log10 concentration (uM): 0.69897, siRNA knockdown: TEAD1-4 siRNA 1	0.257 ± 0.023	–
log10 concentration (uM): 0.69897, siRNA knockdown: TEAD1-4 siRNA 2	0.256 ± 0.0087	–
log10 concentration (uM): 0.69897, siRNA knockdown: YAP/TAZ siRNA 1	0.369 ± 0.049	–
log10 concentration (uM): 0.69897, siRNA knockdown: YAP/TAZ siRNA 2	0.386 ± 0.026	–
log10 concentration (uM): 0.69897, siRNA knockdown: negative control siRNA	0.874 ± 0.18	–
log10 concentration (uM): 1, siRNA knockdown: TEAD1-4 siRNA 1	0.151 ± 0.019	–
log10 concentration (uM): 1, siRNA knockdown: TEAD1-4 siRNA 2	0.168 ± 0.0044	–
log10 concentration (uM): 1, siRNA knockdown: YAP/TAZ siRNA 1	0.216 ± 0.027	–
log10 concentration (uM): 1, siRNA knockdown: YAP/TAZ siRNA 2	0.261 ± 0.015	–
log10 concentration (uM): 1, siRNA knockdown: negative control siRNA	0.742 ± 0.3	–
log10 concentration (uM): 1.301029996, siRNA knockdown: TEAD1-4 siRNA 1	0.0456 ± 0.0077	–
log10 concentration (uM): 1.301029996, siRNA knockdown: TEAD1-4 siRNA 2	0.0819 ± 0.006	–
log10 concentration (uM): 1.301029996, siRNA knockdown: YAP/TAZ siRNA 1	0.114 ± 0.024	–
log10 concentration (uM): 1.301029996, siRNA knockdown: YAP/TAZ siRNA 2	0.14 ± 0.0034	–
log10 concentration (uM): 1.301029996, siRNA knockdown: negative control siRNA	0.217 ± 0.15	0.0407 ± 0.0072
log10 concentration (uM): -0.30103, siRNA knockdown: TEAD1-4 siRNA 1	0.562 ± 0.024	0.826 ± 0.15
log10 concentration (uM): -0.30103, siRNA knockdown: TEAD1-4 siRNA 2	0.478 ± 0.083	0.769 ± 0.12
log10 concentration (uM): -0.30103, siRNA knockdown: YAP/TAZ siRNA 1	0.627 ± 0.099	0.897 ± 0.023
log10 concentration (uM): -0.30103, siRNA knockdown: YAP/TAZ siRNA 2	0.641 ± 0.059	0.7891 ± 0.0076
log10 concentration (uM): -0.30103, siRNA knockdown: negative control siRNA	0.985 ± 0.052	0.938 ± 0.062
log10 concentration (uM): -0.60206, siRNA knockdown: TEAD1-4 siRNA 1	0.646 ± 0.051	0.943 ± 0.21
log10 concentration (uM): -0.60206, siRNA knockdown: TEAD1-4 siRNA 2	0.616 ± 0.056	0.725 ± 0.022
log10 concentration (uM): -0.60206, siRNA knockdown: YAP/TAZ siRNA 1	0.695 ± 0.097	0.964 ± 0.024
log10 concentration (uM): -0.60206, siRNA knockdown: YAP/TAZ siRNA 2	0.731 ± 0.011	0.86 ± 0.035
log10 concentration (uM): -0.60206, siRNA knockdown: negative control siRNA	0.992 ± 0.041	0.916 ± 0.02
log10 concentration (uM): -1, siRNA knockdown: TEAD1-4 siRNA 1	0.742 ± 0.077	0.909 ± 0.24
log10 concentration (uM): -1, siRNA knockdown: TEAD1-4 siRNA 2	0.639 ± 0.026	0.779 ± 0.043
log10 concentration (uM): -1, siRNA knockdown: YAP/TAZ siRNA 1	0.753 ± 0.033	0.959 ± 0.038
log10 concentration (uM): -1, siRNA knockdown: YAP/TAZ siRNA 2	0.78 ± 0.031	0.883 ± 0.069
log10 concentration (uM): -1, siRNA knockdown: negative control siRNA	0.997 ± 0.037	0.976 ± 0.04
log10 concentration (uM): -2, siRNA knockdown: TEAD1-4 siRNA 1	0.922 ± 0.088	0.981 ± 0.056
log10 concentration (uM): -2, siRNA knockdown: TEAD1-4 siRNA 2	1.12 ± 0.16	0.876 ± 0.034
log10 concentration (uM): -2, siRNA knockdown: YAP/TAZ siRNA 1	0.976 ± 0.036	0.988 ± 0.013
log10 concentration (uM): -2, siRNA knockdown: YAP/TAZ siRNA 2	0.922 ± 0.061	0.996 ± 0.019
log10 concentration (uM): -2, siRNA knockdown: negative control siRNA	1.02 ± 0.023	0.9803 ± 0.0097
